Data from US20100120703A1, “COMPOSITIONS AND METHODS FOR TREATING CANCER” (priority 2007, published 2010).

Tests used:
Sprague Dawley (SD) rats [1] = assay: DEN/CCl4-induced hepatoma in rats, promotion stage: liver observation and weight; format: in vivo, rat; conditions: 15 mg/kg oral daily for 28 weeks
Protocol: Sprague Dawley (SD) rats were used as the animal model in the in vivo experiments. Male SD rats (80-90 g body weight) were obtained from Laboratory Animal Services Center of The Chinese University of Hong Kong. The rats were housed in the rodent animal room with a 12 hour light-dark cycle and constant temperature of 25° C. Four rats were housed in each case. Food and water were given ad libitum. All the animals were observed and weighed daily.
The experiments were to induce hepatomas in rats. SIN was administered to the rats of treatment group at different stages. Chemical carcinogens were employed in the design of experiment to be able to induce hepatoma within a short time (Ha W. S. et al., 2001). Diethylnitrosamine (DEN) has been frequently used by other scientists to induce hepatoma. DEN administration in combined with CCl4 method was employed in the experiment to induce hepatoma in rats according to the established protocol (Kovalszky, I. et al., 1992).
Experiments of the promotion stage were to study the effect of SIN at the promotion stage of cancer development. Fifteen rats were randomly divided into 3 groups, a negative control group (5 rats), a positive control group (5 rats) and an SIN-treatment group (5 rats). […]
During the experiment, the body weight of the rat was monitored daily. […]

Sprague Dawley (SD) rats [2] = assay: Histological analysis and GST-p immunostaining of liver, progression stage; format: in vivo, rat
Protocol: The liver samples were fixed with 10% formaldehyde and put in cassettes for dehydration and fixed with wax. Subsequently, liver samples were embedded in the solidified wax and sliced to 5 μm thickness with a microtome machine. Sliced samples were mounted onto Superfrost microscope slides for further studies.
Slides with liver sections were placed on a slide holder, dewaxed and rehydrated with xylene (3 times, each time 5 minutes), 100% ethanol (3 times, each time 3 minutes), 95% ethanol (3 minutes), 80% ethanol (3 minutes) and distilled water (5 minutes) in order. Slides were then immersed into hematoxylin for about 3 minutes, and the color was allowed to develop for several minutes in water, followed by brief destaining with acid ethanol and water. Slides were immersed into eosin for about 30 seconds to stain the cytoplasm red, followed by washing in tap water for several minutes. Slide-checking was necessary to assure the best staining effect. Slides were then dehydrated with 95% ethanol (3 minutes), 100% ethanol (3 times, each time 5 minutes), and xylene (3 times, each time 5 minutes), in order. Finally, the slides were mounted with coverslips and allowed to dry. […]
The images were checked and captured by an Axiophot-2 Universal microscope (Zeiss) connected with computer for documentation. The image was recorded by Spot 32 image capture software (Diagnostic Instruments). […]

## C=CC/C(=N/OS(=O)(=O)[O-])S[C@@H]1OC(CO)[C@@H](O)C(O)C1O.[K+] (stereo partly shown) [SIN, sinigrin]
Sprague Dawley (SD) rats [1]
  percentage of liver weight and liver weight index vs negative group: only slightly higher
  visible tumors on liver (direct observation): no visible tumor
Sprague Dawley (SD) rats [2]; 15 mg/kg oral daily
  hepatocyte structure in liver sections (H&E): the basic structure was restored without abnormal appearance
Sprague Dawley (SD) rats [2]; positive control about 30%
  GST-p positive area / whole section area: less than 10%
